# Legend:
# μ receptors = settings: cited from earlier work
# enkephalins = settings: peripheral administration; Bertolucci et al., 1992; cited from earlier work
# [1] = system: all known opioid receptor subtypes; settings: cited from earlier work
# κ and ε sites = settings: brain; Chang et al., 1981; cited from earlier work
# ε receptors = experiment: inhibition of cAMP formation in BHK cells expressing ε receptors; format: cell-based, human
# ε opioid receptor = target: T1, ε opioid receptor (Homo sapiens, UniProt P48145); experiment: ligand affinity/interaction profile of the cloned receptor; format: binding
# T1 construct: a 2 kb fragment was removed from the 5' untranslated region of the gene and the shortened insert (2.5 kb) was subcloned; expressed in transfected cells; host or cells: COS and BHK cells (pRC/CMV vector)
# T1 sequence (P48145 1-328 S296T): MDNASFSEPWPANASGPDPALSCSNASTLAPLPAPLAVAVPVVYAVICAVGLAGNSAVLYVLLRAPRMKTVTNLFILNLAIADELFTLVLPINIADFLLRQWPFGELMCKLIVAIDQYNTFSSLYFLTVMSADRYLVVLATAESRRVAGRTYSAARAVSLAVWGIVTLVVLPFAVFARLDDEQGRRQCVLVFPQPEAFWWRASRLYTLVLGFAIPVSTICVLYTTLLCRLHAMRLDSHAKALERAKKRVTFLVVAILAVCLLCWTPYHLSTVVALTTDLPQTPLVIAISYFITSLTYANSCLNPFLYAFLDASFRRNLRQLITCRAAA
# [2] = system: U-69, 593 insensitive benzoinorphan site; settings: Nock et al., 1993; cited from earlier work
molecule,measurement,setting,value
CN1CC[C@]23c4c5ccc(O)c4O[C@H]2[C@@H](O)C=C[C@H]3[C@H]1C5 [Morphine],interaction with μ receptors (in words),μ receptors,interacts principally with μ receptors
same,release of enkephalins (in words),enkephalins,induces release of enkephalins
CCC12CCN(CC3(O)CC3)C(Cc3ccc(O)cc31)C2(C)C (stereo not shown) [[^3 H]bremazocine],affinity for all known opioid receptor subtypes (in words),[1],high affinity
CC[C@]12CCN(CC3CC3)[C@H](C(=O)c3ccc(O)cc31)[C@@H]2C [ethylketocyclazocine],labelling of opioid binding sites (in words),κ and ε sites,"label two populations of non-μ, non-δ opioid binding sites"
CN1CC[C@]23CCCC[C@H]2[C@H]1Cc1ccc(O)cc13 [levorphanol],inhibition of cAMP formation,ε receptors,inhibition of cAMP formation
β-endorphin: endogenous opioid peptide with high affinity for the ε receptor,affinity of the receptor for the ligand (in words),ε opioid receptor,high affinity
same,"affinity for the U-69,593 insensitive site (in words)",[2],high affinity

# From patent publication US5591602A (priority 1993, dated 1997)
